Consider 2 compounds from patent US8362070B2, “Application of puerarin in the preparation of P2X3 mediated drugs for pain/nervous system diseases” (Nanchang University, priority 2009, dated 2013).

Common to all, as to type: in vivo, rat
Assay [1] relates to rats that suffer from superficial second degree foot burn. Put plainly: Mechanical hyperalgesia (mechanical withdrawal threshold) in rats with foot burn. The settings on record: for mechanical withdrawal threshold (MWT) in comparison to group III (burn) / mechanical withdrawal threshold (MWT) after 72 hours or 96 hours: superficial second degree foot burn + drug; for mechanical withdrawal threshold (MWT) in comparison to group III (burn): p<0.01; for mechanical withdrawal threshold (MWT) after 72 hours or 96 hours: vs groups I, II, V p>0.05. An excerpt:
Male SD rats, 220-250 g, 60 rats were included, which were provided by the Department of Experimental Animals from the Medical College of Nanchang University, and the animals were divided into different groups at random. Group I was the group of sham burn in skin of feet; group II was the group of puerarin injection+first degree or superficial second degree burn in skin of feet; group III was the group of physiological saline+first degree or superficial second degree burn in skin of feet; group IV was the group of sham burn in skin of back; group V was the group of puerarin injection+first degree or superficial second degree burn in skin of back; group VI was the group of physiological saline+first degree or superficial second degree burn in skin of back. Puerarin injection was dissolved in physiological saline and the concentration was 50 mg/mL. vena caudalis injection of 4 mL/kg physiological saline was carried out for the rats in group III and […] 0.5 h before burn, and the injection was carried out once a day until the termination of the test; […], and the injection was carried out once a day until the termination of the test; skin of feet or back of the rats from group I and group IV (the sham burn group) were immersed in warm water of 37° C. for 8 seconds. After the rats were anesthetized by ether, their right posterior feet were immersed in hot water of 70° C. for 5 seconds or 8 seconds, then they were raised in separate cages after burn. The mechanical withdrawal threshold and the thermal withdrawal threshold in their right posterior feet were measured respectively before burn (Oh) and 1, 24, 48, 72, 96, 120, 144 hours after burn (the room temperature was maintained at 22±0.5° C.). BME-403 Von Frey fine thread was used to detect the mechanical withdrawal threshold (MWT). The rats were kept in transparent organic glass box (22×12×22 cm^3), and the bottom of the organic glass box was made of wire netting of 1×1 cm^2. The rats were raised in the laboratory after operations and they were kept in the organic glass box for accommodation for 15 min before the detection. The bending forces were 0.13, 0.20, 0.33, 0.60, 1.30, 3.60, 5.00, 7.30, 9.90, 20.1 g respectively. Each test was performed for ten times from the smallest bending force until the frequency of withdrawal was higher than 5/10, namely 50% reaction threshold (that was the value for inducing five reactions in ten tests). The biggest bending force was 20.1 g and bending forces≧20.1 g were recorded as 20.1 g. The interval between two stimulations was at least more than 15 seconds until the stimulation-induced reactions (such as licking feet and throwing legs) completely disappeared. BME-403 Von Frey fine thread was used to determine the mechanical withdrawal threshold (MWT). The rats were kept in transparent organic glass box (22×12×22 cm^3), and the bottom of the organic glass box was made of wire netting of 1×1 cm^2. The rats were raised in the laboratory after operations and they were kept in the organic glass box for accommodation for 15 minutes before the detection. The bending forces were 0.13, 0.20, 0.33, 0.60, 1.30, 3.60, 5.00, 7.30, 9.90, 20.1 g respectively, and bending forces≧20.1 g were recorded as 20.1 g. […]

Assay [2] deals with rats that suffer from neuropathic pain (chronic constriction injury of sciatic nerve). The assay is described as follows: Thermal hyperalgesia (thermal withdrawal latency) in rats with neuropathic pain (CCI). The settings on record: for thermal withdrawal latency (TWL) in comparison with group III (CCI): CCI rats, puerarin i.p. 50 mg/mL, 4 mL/kg daily, idomethine 4 mg/kg/d i.p. (seven days after ligation), p<0.01. The method, then:
Male SD rats, 220-250 g were provided by the Department of Experimental Animals from the Medical College of Nanchang University. The rats were divided into […] at random and 12 rats were included in each group. Experimental grouping: I (sham); II (puerarin); III (chronic constriction injuries, CCI); IV (CCI+puerarin); V (control); VI (CCI+Indo). The puerarin injection was dissolved in physiological saline and the concentration was 50 mg/mL. Group I were subjected to intraperitoneal injection of physiological saline (4 mL/kg); Group II were subjected to intraperitoneal injection of puerarin injection (4 mL/kg); Skins of the […] were cut open and their sciatic nerves were exposed, then their skin was sew up without ligating nerves. Group IV were subjected to intraperitoneal injection of puerarin injection (4 mL/kg) everyday on the first day after CCI operation. Intraperitoneal injection of idomethine (4 mg/kg/d) was carried out on the rats in […] half an hour before the operation and after the operation everyday, and the injection was carried out once a day until the test was finished.
(§1) Thiopental sodium was used to anesthetize the rats (30 mg/kg, intraperitoneal injection), and the skin in the outer side of right thighs of the rats was cut open under sterile conditions, and blunt dissection was carried out to isolate the sciatic nerves, then the sciatic nerves were slightly ligated with 4-0 chromicized catgut and four ligations were carried out in total, and an interval of about 1 mm was left between two knots. […] The rats were raised in separate cages after the operation, and mechanical withdrawal threshold and thermal withdrawal latency were determined before the operation (0 d) and 1, 3, 5, 7, 9, 11, 14 days after the operations respectively (Time for the determination is set at 10[…]00-14[…]100 everyday, and the room temperature was maintained at 22±0.5° C.).
The organic glass box was placed on a glass plate of 3 mm thick and BME-410C type automatic thermalgia stimulator (Institute of Biomedical Engineering, Chinese Academy of Medical Sciences) was used to irradiate the footplates of rats. The time for the appearance of leg withdrawal after the irradiation on footplates of rats by using the thermal radiation stimulator was considered as the thermal withdrawal latency (TWL). The time for cutting off was 30 seconds in order to prevent burn on tissues.

Assay [3] has the same test system. Put plainly: Mechanical hyperalgesia (mechanical withdrawal threshold, Von Frey) in rats with neuropathic pain (CCI). The method, then: Male SD rats, 220-250 g were provided by the Department of Experimental Animals from the Medical College of Nanchang University. The rats were divided into five groups at random and 12 rats were included in each group. Experimental grouping: I (sham); II (puerarin); III (chronic constriction injuries, CCI); IV (CCI+puerarin); V (control); VI (CCI+Indo). The puerarin injection was dissolved in physiological saline and the concentration was 50 mg/mL. […]
as §1, with “C.). […]” for “C.).”

A further assay has as its system P2X3 receptor. The assay is described as follows: Immunohistochemistry of P2X3 receptor expression in skin nerve ending of rats with back burn. The settings on record: superficial second degree back burn + puerarin injection i.v. daily for three days; saline+burn 152.63±22.62, sham 118.76±18.48.

Take `COc1ccc2c(c1)c(CC(=O)O)c(C)n2C(=O)c1ccc(Cl)cc1` [Indocin, Indometacin]: in assay [1], the “mechanical withdrawal threshold (MWT) in comparison to group III (burn)” value was “significantly decreased” and the “mechanical withdrawal threshold (MWT) after 72 hours or 96 hours” value is “almost recovered to normal level”. The “thermal withdrawal latency (TWL) in comparison with group III (CCI)” value in assay [2] is reported as “increased”.
In the case of `O=c1c(-c2ccc(O)cc2)coc2c([C@@H]3O[C@H](CO)[C@@H](O)[C@H](O)[C@H]3O)c(O)ccc12` [puerarin], the “mechanical withdrawal threshold (MWT) in comparison with group III (CCI)” value in assay [3] (CCI rats + puerarin, seven days after ligation, p<0.01) was “significantly increased”. Moreover, the “mechanical withdrawal threshold, difference among sham, puerarin alone and control” value in assay [3] (puerarin alone, no CCI, p>0.05) is reported as “not significant”. Further, the “gray scale values (average optical density) of P2X3 immunologically positive nerve ending in the skin” value with P2X3 receptor was found to be 130.42±13.35. Also, the “mechanical withdrawal threshold, comparison among sham, puerarin alone and control” value in assay [1] (puerarin alone i.p., no burn, p>0.05) is recorded as “no significant difference”. In assay [1], the “mechanical withdrawal threshold (MWT) in comparison to group III (burn)” value is recorded as “significantly decreased” and the “mechanical withdrawal threshold (MWT) after 72 hours or 96 hours” value was “almost recovered to normal level”. Also, the “thermal withdrawal latency, difference from group V (control) after 14 days” value in assay [2] (CCI rats + puerarin, 14 days, p>0.05) was “not statistically significant”. In assay [2], the “thermal withdrawal latency (TWL) in comparison with group III (CCI)” value is reported as “significantly increased”. Besides, the “thermal withdrawal latency, difference among sham, puerarin alone and control” value in assay [2] (puerarin alone, no CCI, p>0.05) is recorded as “not significant”.
